The values below come from patent publication US6906006B1, “N-arly-substituted nitrogen-containing heterocycles, processes and novel intermediates for their preparation, and their use as herbicides and plant growth regulators” (Bayer Aktiengesellschaft, priority 1988, dated 2005).

Assay [1] has as its system test plants. Nature of the assay: Pre-emergence test (Use Example A, formula (I) compounds). The class given is in vivo. Conditions: damage rated after three weeks, comparison substance 1-(2-chloro-4-trifluoromethylphenyl)-5-methyl-4-nitropyrazole. The method, then: • Solvent: 5 parts by weight of acetone • Emulsifier: 1 part by weight of alkylaryl polyglycol ether
(§1) To produce a suitable preparation of active compound, 1 part by weight of active compound is mixed with the stated amount of solvent, the stated amount of emulsifier is added and the concentrate is diluted with water to the desired concentration.
Seeds of the test plants are sown in normal soil and, after 24 hours, watered with the preparation of active compound. It is expedient to keep constant the amount of water per unit area. The concentration of the active compound in the preparation is of no importance, only the amount of active compound applied per unit area being decisive. After three weeks, the degree of damage to the plants is rated in % damage in comparison to the development of the untreated control. The figures denote: • 0%=no action (like untreated control) • 100% total destruction

Assay [2] deals with test plants. Nature of the assay: Post-emergence test (Use Example B, formula (I) compounds). The class given is in vivo. The following applies: sprayed in 2,000 l of water/ha, damage rated after three weeks, comparison substance 1-(2-chloro-4-trifluoromethylphenyl)-5-methyl-4-nitropyrazole. Here is the method:
• Solvents 5 parts by weight of acetone • Emulsifier: 1 part by weight of alkylaryl polyglycol ether
as §1
Test plants which have a height of 5-15 cm are sprayed with the preparation of the active compound in such a way as to apply the particular amounts of active compound desired per unit area. The concentration of the spray liquor is so chosen that the particular amounts of active compound desired are applied in 2,000 l of water/ha. After three weeks, the degree of damage to the plants is rated in % damage in comparison to the development of the untreated control. The figures denote: • 0%=no action (like untreated control) • 100%=total destruction

For the compound `CCOCCOc1cc(-n2nc3c(c2C)CCCC3)c(F)cc1C#N` [Example 10], the figures for the “effectiveness and crop plant selectivity compared with the prior art” value in assay [1] and in assay [2] were “clearly superior to the prior art” and “clearly superior effectiveness as well as crop plant selectivity”, respectively.

Turning to `Cc1c2c(nn1-c1cc(SC(C)C)c(C#N)cc1F)CCCC2` [Example 9, 4-(5-methyl-3,4-tetramethylene-1-pyrazolyl)-5-fluoro-2-isopropylthiobenzonitrile], the “effectiveness and crop plant selectivity compared with the prior art” value in assay [2] is “clearly superior effectiveness as well as crop plant selectivity”.
